Reference: article PMC10354095, “Insights into peculiar fungal LPMO family members holding a short C-terminal sequence reminiscent of phosphate binding motifs” (Scientific Reports, 2023)

Biological target: T1, CciAA9-X282-CBM1 (Coprinopsis cinerea, UniProt A8NCG7)
T1 construct: gene AA9-X282; AA9-X282-linker-CBM1; C-terminal poly-His tag; Pichia pastoris X33
Experiment: Amplex Red/HRP oxidase assay (H2O2 production)
Type: biochemical
Settings: reductant (electron donor) at 50 uM, O2 as co-substrate; 1 uM enzyme; sodium phosphate 50 mM, pH 7.0

T1 sequence (A8NCG7 19-342): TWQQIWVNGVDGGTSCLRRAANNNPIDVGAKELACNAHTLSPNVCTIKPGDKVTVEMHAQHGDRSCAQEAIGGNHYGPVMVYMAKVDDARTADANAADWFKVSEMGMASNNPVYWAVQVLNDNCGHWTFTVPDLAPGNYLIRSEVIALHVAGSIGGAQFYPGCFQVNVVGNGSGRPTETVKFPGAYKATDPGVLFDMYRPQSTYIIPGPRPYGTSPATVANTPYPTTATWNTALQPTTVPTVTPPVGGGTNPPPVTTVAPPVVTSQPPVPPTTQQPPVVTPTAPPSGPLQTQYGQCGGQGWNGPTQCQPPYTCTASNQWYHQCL

O=C1O[C@H]([C@@H](O)CO)C(O)=C1O [ascorbic acid]
Amplex Red/HRP oxidase assay (H2O2 production): all AA9-X282 LPMOs displayed an oxidase (i.e. H2O2 producing) activity
